Where a SMILES comes first, the peptide text is derived from it.
Tests used:
Test in all cases: AMC release by intact cells, fluorescence
Assay type in all cases: cell-based
Conditions in all cases: 20 uM; 50 mM phosphate, 5 mM EDTA, 100 mM NaCl, 37 C, 3 h
DPP5 = target: T1, DPP5 (Porphyromonas gingivalis, UniProt B2RIT0)
T1 sequence (B2RIT0 25-684): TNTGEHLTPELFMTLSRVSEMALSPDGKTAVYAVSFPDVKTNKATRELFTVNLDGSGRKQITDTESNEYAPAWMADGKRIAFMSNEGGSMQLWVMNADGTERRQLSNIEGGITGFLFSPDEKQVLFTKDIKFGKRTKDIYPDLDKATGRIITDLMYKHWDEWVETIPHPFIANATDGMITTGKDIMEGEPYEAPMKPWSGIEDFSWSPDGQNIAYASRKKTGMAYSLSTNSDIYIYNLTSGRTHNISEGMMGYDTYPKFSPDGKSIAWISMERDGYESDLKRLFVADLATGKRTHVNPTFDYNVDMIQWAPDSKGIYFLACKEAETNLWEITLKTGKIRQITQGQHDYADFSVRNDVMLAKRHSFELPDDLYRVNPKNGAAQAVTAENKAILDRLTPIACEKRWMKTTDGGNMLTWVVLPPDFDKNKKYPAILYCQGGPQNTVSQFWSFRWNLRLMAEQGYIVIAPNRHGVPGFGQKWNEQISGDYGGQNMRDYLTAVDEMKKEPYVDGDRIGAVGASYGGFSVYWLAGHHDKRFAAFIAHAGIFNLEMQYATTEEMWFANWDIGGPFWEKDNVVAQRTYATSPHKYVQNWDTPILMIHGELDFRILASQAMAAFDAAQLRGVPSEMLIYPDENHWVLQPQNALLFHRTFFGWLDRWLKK

DPP11 = target: T2, DPP11 (Porphyromonas gingivalis, UniProt B2RID1)
T2 sequence (B2RID1 22-720): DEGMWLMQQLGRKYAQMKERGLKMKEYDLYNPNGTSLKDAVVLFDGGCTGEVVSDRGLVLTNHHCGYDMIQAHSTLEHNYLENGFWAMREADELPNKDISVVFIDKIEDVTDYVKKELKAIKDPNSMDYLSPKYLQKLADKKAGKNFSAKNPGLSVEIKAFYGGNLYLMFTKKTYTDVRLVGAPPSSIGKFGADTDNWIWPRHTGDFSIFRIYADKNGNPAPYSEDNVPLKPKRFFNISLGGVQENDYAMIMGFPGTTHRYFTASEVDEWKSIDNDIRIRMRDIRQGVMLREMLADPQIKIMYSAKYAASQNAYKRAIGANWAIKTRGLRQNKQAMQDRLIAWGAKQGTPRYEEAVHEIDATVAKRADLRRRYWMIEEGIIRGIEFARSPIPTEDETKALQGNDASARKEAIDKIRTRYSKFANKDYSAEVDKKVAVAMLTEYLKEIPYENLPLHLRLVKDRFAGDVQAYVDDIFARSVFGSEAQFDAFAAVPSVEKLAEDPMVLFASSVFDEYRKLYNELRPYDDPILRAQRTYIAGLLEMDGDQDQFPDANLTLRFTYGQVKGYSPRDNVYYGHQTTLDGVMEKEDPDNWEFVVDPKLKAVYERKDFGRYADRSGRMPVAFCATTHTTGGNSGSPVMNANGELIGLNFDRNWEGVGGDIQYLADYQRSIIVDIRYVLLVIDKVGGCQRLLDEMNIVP

DPP4 = DPP4 (Porphyromonas gingivalis, UniProt B2RKU3)

Cc1cc(=O)oc2cc(NC(=O)[C@H](C)NC(=O)[C@@H](N)CCCCN)ccc12 [Lys-Ala-MCA] (HELM PEPTIDE1{K.A.[Cc1cc(=O)oc2cc(N[*:1])ccc12]}$$$$V2.0)
AMC release by intact cells, fluorescence (DPP5): Lys-Ala-MCA (substrate of DPP5)

Cc1cc(=O)oc2cc(NC(=O)[C@H](CC(=O)O)NC(=O)[C@@H](N)CC(C)C)ccc12 [Leu-Asp-MCA] (HELM PEPTIDE1{L.D.[Cc1cc(=O)oc2cc(N[*:1])ccc12]}$$$$V2.0)
AMC release by intact cells, fluorescence (DPP11): Leu-Asp-MCA (substrate of DPP11)

Cc1cc(=O)oc2cc(NC(=O)[C@@H]3CCCN3C(=O)CN)ccc12 [Gly-Pro-MCA] (HELM PEPTIDE1{G.P.[Cc1cc(=O)oc2cc(N[*:1])ccc12]}$$$$V2.0)
AMC release by intact cells, fluorescence (DPP4): Gly-Pro-MCA (substrate of DPP4)
